Measurements taken from US8999981B2, “3-amido-pyrrolo[3,4-C]pyrazole-5(1H, 4H,6H) carbaldehyde derivatives” (Pfizer Inc., priority 2007, dated 2015).

Each molecule was assayed against Protein Kinase C beta 2 (PKCβII) (Homo sapiens (Human), UniProt P05771) (assay: PKCβII coupled PK/LDH spectrophotometric kinase assay). Conditions: apparent Ki, ATP-competitive model (Morrison equation); 0.1 mM ATP, 30° C.; read-out: PKCb Ki.
Type: biochemical
Description: This transfer is coupled to the oxidation of β-NADH through the activities of Pyruvate Kinase (PK) and Lactate Dehydrogenase (LDH). β-NADH conversion to NAD+ is monitored by the decrease in absorbance at 340 nm (e=6.22 cm^−1 mM^−1) using a Molecular Devices SPECTRA max PLUS spectrophotometer.
A typical assay was carried out on a 96-well, clear microtiter plate in a Molecular Devices spectrophotometer for 20 minutes at 30° C. in 0.1 mL of assay buffer containing 50 mM HEPES, pH 7.4, 5 nM PKC, 23 units of pyruvate kinase, 33 units of lactate dehydrogenase, 0.15 mM peptide, 0.1 mM ATP, 1 mM DTT, 4 mM PEP, 8 mM MgCl2, 0.3 mM NADH, 60 mM CaCl2, 10 mg/mL PS, 50 ng/mL PMA, 7.5% DMSO and from about 10,000 nM to 0.169 nM compound inhibitor. Stock solutions of 3-sn-phosphatidyl-L-serine (PS) and phorbol-12-myristate-13-acetate (PMA) were sonicated for 30 seconds just prior to addition to assay buffer and assays were initiated by the addition of 100 μM ATP.
Enzyme turnover values (kcat) were calculated according to […], where [E] is the total enzyme concentration. Enzyme inhibition constants (apparent K values) were determined by fitting initial velocities at variable inhibitor concentrations to a model for ATP competitive inhibition based on the Morrison equation). Morrison, J. F., Biochim. Biophys Acta 185: 269-286 (1969).

Chain of Protein Kinase C beta 2 (PKCβII) (P05771 other isoform, or with tags, fused parts or gaps): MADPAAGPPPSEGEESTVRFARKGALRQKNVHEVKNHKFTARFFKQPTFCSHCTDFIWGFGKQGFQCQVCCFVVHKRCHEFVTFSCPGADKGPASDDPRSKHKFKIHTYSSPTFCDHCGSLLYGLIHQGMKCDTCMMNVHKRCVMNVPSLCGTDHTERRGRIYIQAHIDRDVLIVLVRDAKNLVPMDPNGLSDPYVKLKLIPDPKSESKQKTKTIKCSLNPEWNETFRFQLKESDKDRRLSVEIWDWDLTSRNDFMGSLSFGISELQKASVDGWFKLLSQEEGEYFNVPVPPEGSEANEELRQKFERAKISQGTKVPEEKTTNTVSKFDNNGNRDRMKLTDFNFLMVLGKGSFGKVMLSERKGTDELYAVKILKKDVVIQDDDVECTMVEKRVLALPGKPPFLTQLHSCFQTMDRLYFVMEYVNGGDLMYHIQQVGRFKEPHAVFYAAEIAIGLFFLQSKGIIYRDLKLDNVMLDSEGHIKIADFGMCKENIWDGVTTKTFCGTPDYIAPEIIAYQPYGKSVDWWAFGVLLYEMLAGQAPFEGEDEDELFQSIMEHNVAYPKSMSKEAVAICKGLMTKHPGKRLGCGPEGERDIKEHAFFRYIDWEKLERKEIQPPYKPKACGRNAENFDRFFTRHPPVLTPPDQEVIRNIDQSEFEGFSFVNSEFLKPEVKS

Row | Compound | Ki [µM]
1 | CC[C@H]1CN2CCC[C@H]2CN1C(=O)N1Cc2c(NC(=O)c3ccccn3)n[nH]c2C1(C)C [Example A70] | 0.0462
2 | C[C@@H]1CN(C(=O)N2Cc3c(NC(=O)c4cc(C5CC5)n[nH]4)n[nH]c3C2(C)C)[C@@H](C)CN1CC1CCOCC1 [Example F17] | 0.0194
3 | CCc1ccc(C(=O)Nc2n[nH]c3c2CN(C(=O)N2C[C@@H]4CCCN4C[C@@H]2C)C3(C)C)nc1 [Example A50] | 0.0821
4 | CCCc1cc(C(=O)Nc2n[nH]c3c2CN(C(=O)N2C[C@@H](C)N(CC4CCOCC4)C[C@@H]2C)C3(C)C)no1 [Example F24] | 0.0594
5 | C[C@H]1CN2CCC[C@H]2CN1C(=O)N1Cc2c(NC(=O)c3ccc4c(c3)CCO4)n[nH]c2C1(C)C [Example A64] | 0.0159
6 | CC1CN(C(=O)N2Cc3c(NC(=O)c4ccccn4)n[nH]c3C2(C)C)C(C)CN1 (stereo not drawn) [Example A46] | 0.0362
7 | CC[C@H]1CN2CCC[C@H]2CN1C(=O)N1Cc2c(NC(=O)c3ccccc3)n[nH]c2C1(C)C [Example A69] | 0.0678
8 | CC[C@H]1CN2CCC[C@H]2CN1C(=O)N1Cc2c(NC(=O)c3cccc(Cl)c3)n[nH]c2C1(C)C [Example A71] | 0.0499
9 | CC(C)[C@H]1CN2CCC[C@H]2CN1C(=O)N1Cc2c(NC(=O)c3ccc(F)cc3F)n[nH]c2C1(C)C [Example A101] | 0.148
10 | CC(C)c1csc(C(=O)Nc2n[nH]c3c2CN(C(=O)N2C[C@@H]4CCCN4C[C@@H]2C)C3(C)C)n1 [Example A55] | 0.177
11 | C[C@@H]1CN(C(=O)N2Cc3c(NC(=O)c4ccn(C)n4)n[nH]c3C2(C)C)[C@@H](C)CN1CC1CCOCC1 [Example F16] | 0.0258
12 | CC1(C)c2[nH]nc(NC(=O)c3cccc(Oc4ccccc4)c3)c2CN1C(=O)N1C[C@@H]2CCCN2C[C@@H]1Cc1ccccc1 [Example A3] | 0.0368
13 | CCc1ccnc(C(=O)Nc2n[nH]c3c2CN(C(=O)N2C[C@@H]4CCCN4C[C@@H]2C)C3(C)C)c1 [Example A53] | 0.0663
14 | C[C@H]1CN2CCC[C@H]2CN1C(=O)N1Cc2c(NC(=O)c3cccc(OC(F)(F)F)c3)n[nH]c2C1(C)C [Example A45] | 0.104
15 | C[C@@H]1CN(C(=O)N2Cc3c(NC(=O)c4cn(C)cn4)n[nH]c3C2(C)C)[C@@H](C)CN1CC1CCOCC1 [Example E14] | 0.156
16 | CC(C)C[C@H]1CN2CCC[C@H]2CN1C(=O)N1Cc2c(NC(=O)c3ccc4ccccc4n3)n[nH]c2C1(C)C [Example A12] | 0.103

Row | Compound | Ki [µM]
17 | CC[C@H]1CN2CCC[C@@]2(C)CN1C(=O)N1Cc2c(NC(=O)c3ccc(F)cn3)n[nH]c2C1(C)C [Example A139] | 0.0752
18 | Cc1nc(C(=O)Nc2n[nH]c3c2CN(C(=O)N2C[C@@H](C)N(CC4CCOCC4)C[C@@H]2C)C3(C)C)c(C)o1 [Example F23] | 0.0313
19 | CCC[C@H]1CN2CCC[C@H]2CN1C(=O)N1Cc2c(NC(=O)c3ccccc3)n[nH]c2C1(C)C [Example A28] | 0.0961
20 | CC1(C)c2[nH]nc(NC(=O)c3cccc(Cl)n3)c2CN1C(=O)N1CCN2CCCC2C1 (stereo not drawn) [Example A24] | 0.0429
21 | Cc1cc(C(=O)Nc2n[nH]c3c2CN(C(=O)N2C[C@@H]4CCCN4C[C@@H]2C)C3(C)C)n(C)n1 [Example A42] | 0.0679
22 | CCc1nc(C(=O)Nc2n[nH]c3c2CN(C(=O)N2C[C@@H](C)N(CC4CCOCC4)C[C@@H]2C)C3(C)C)cs1 [Example F25] | 0.0333
23 | C[C@H]1CN2CCC[C@H]2CN1C(=O)N1Cc2c(NC(=O)c3ccc(OC(F)(F)F)cc3)n[nH]c2C1(C)C [Example A41] | 0.0454
24 | Cn1ccnc1C(=O)Nc1n[nH]c2c1CN(C(=O)N1C[C@@H]3CCCN3C[C@@H]1Cc1ccccc1)C2(C)C [Example A26] | 0.0693
25 | C[C@H]1CN2CCC[C@H]2CN1C(=O)N1Cc2c(NC(=O)c3ccc(F)c(Cl)c3)n[nH]c2C1(C)C [Example A49] | 0.0536
26 | C[C@H]1CN2CCC[C@H]2CN1C(=O)N1Cc2c(NC(=O)c3ccc(F)cn3)n[nH]c2C1(C)C [Example A92] | 0.0203
27 | C[C@@H]1CN(C(=O)N2Cc3c(NC(=O)c4ccccn4)n[nH]c3C2(C)C)[C@@H](C)CN1Cc1cocn1 [Example A148] | 0.0483
28 | C[C@H]1CN2CCC[C@H]2CN1C(=O)N1Cc2c(NC(=O)c3c(F)cccc3Cl)n[nH]c2C1(C)C [Example A38] | 0.181
29 | C[C@H]1CN2CCC[C@H]2CN1C(=O)N1Cc2c(NC(=O)c3ccccc3)n[nH]c2C1(C)C [Example A27] | 0.0351
30 | CC1(C)CN2CCC[C@H]2CN1C(=O)N1Cc2c(NC(=O)c3ccccn3)n[nH]c2C1(C)C [Example A81] | 0.125
31 | CN1CCN(C(=O)N2Cc3c(n[nH]c3NC(=O)c3cc4ccccc4s3)C2(C)C)[C@@H](Cc2ccccc2)C1 [Example A4] | 0.146
32 | C[C@H]1CN(C)C(C)(C)CN1C(=O)N1Cc2c(NC(=O)c3ccccn3)n[nH]c2C1(C)C [Example A129] | 0.0181

Other lines, results leading:

Row | Ki [µM] | Compound
33 | 0.0664 | CCc1ocnc1C(=O)Nc1n[nH]c2c1CN(C(=O)N1C[C@@H](C)N(C)C[C@@H]1C)C2(C)C [Example C7]
34 | 0.107 | CC[C@H]1CN2CCC[C@@H]2CN1C(=O)N1Cc2c(CC(=O)c3ccccn3)n[nH]c2C1(C)C [Example A90]
35 | 0.042 | C[C@H]1CN(C)[C@H](CCO)CN1C(=O)N1Cc2c(NC(=O)c3ccccn3)n[nH]c2C1(C)C [Example A150]
36 | 0.0152 | CC[C@H](C)[C@H]1CN2C[C@H](O)C[C@H]2CN1C(=O)N1Cc2c(NC(=O)c3ccccn3)n[nH]c2C1(C)C [Example A85]
37 | < 0.01 | CCc1ccc(C(=O)Nc2n[nH]c3c2CN(C(=O)N2C[C@@H](C)N(C4CCOCC4)C[C@@H]2C)C3(C)C)nc1 [Example F51]
38 | 0.0619 | CCC1(CC)c2[nH]nc(NC(=O)c3ccccn3)c2CN1C(=O)N1C[C@@H]2CCCN2C[C@@H]1C [Example A132]
39 | 0.0257 | CCc1nc(C)c(C(=O)Nc2n[nH]c3c2CN(C(=O)N2C[C@@H](C)N(C)C[C@@H]2C)C3(C)C)o1 [Example C6]
40 | 0.118 | C[C@H]1CN2CCC[C@H]2CN1C(=O)N1Cc2c(NC(=O)c3ccnn3C)n[nH]c2C1(C)C [Example E8]
41 | 0.0351 | Cc1nc(C(=O)Nc2n[nH]c3c2CN(C(=O)N2C[C@@H](C)N(C)C[C@@H]2C)C3(C)C)cs1 [Example C3]
42 | 0.0388 | C[C@@H]1CN(C(=O)N2Cc3c(NC(=O)c4ccc(F)cn4)n[nH]c3C2(C)C)[C@@H](C)CN1CCO [Example A161]
43 | 0.0837 | C[C@H]1CN2C[C@H]3CC3[C@H]2CN1C(=O)N1Cc2c(NC(=O)c3ccccn3)n[nH]c2C1(C)C (stereo partly drawn) [Example A104]
44 | 0.0236 | C[C@@H]1CN(C(=O)N2Cc3c(NC(=O)c4ccccn4)n[nH]c3C2(C)C)[C@@H](C)CN1CCCC#N [Example A141]
45 | 0.037 | C[C@@H]1CN(C(=O)N2Cc3c(NC(=O)c4ccccn4)n[nH]c3C2(C)C)[C@@H](C)CN1CC1(C)COC1 [Example A153]
46 | 0.139 | CC[C@H](C)[C@H]1CN2C[C@H](O)C[C@H]2CN1C(=O)N1Cc2c(NC(=O)c3ccccn3)n[nH]c2C1(C)C [Example A84]
47 | 0.0245 | COCCCN1C[C@H](C)N(C(=O)N2Cc3c(NC(=O)c4ccc(F)cn4)n[nH]c3C2(C)C)C[C@H]1C [Example A163]
48 | 0.0836 | CCc1nc(C)c(C(=O)Nc2n[nH]c3c2CN(C(=O)N2C[C@@H](C)N(CCCOC)C[C@@H]2C)C3(C)C)o1 [Example F6]
49 | 0.0122 | Cc1ccc(C(=O)Nc2n[nH]c3c2CN(C(=O)N2C[C@@H](C)N(C4CCOCC4)C[C@@H]2C)C3(C)C)nc1 [Example F54]
50 | 0.0289 | Cc1nc(C)c(C(=O)Nc2n[nH]c3c2CN(C(=O)N2C[C@@H]4CCCN4C[C@@H]2C)C3(C)C)o1 [Example E11]
51 | < 0.01 | C[C@@H]1CN(C(=O)N2Cc3c(NC(=O)c4ccc(F)cn4)n[nH]c3C2(C)C)[C@@H](C)CN1C1CCOCC1 [Example A149]
52 | 0.0465 | Cc1ncoc1C(=O)Nc1n[nH]c2c1CN(C(=O)N1C[C@@H](C)N(C)C[C@@H]1C)C2(C)C [Example C5]
53 | < 0.01 | C[C@@H]1CN(C(=O)N2Cc3c(NC(=O)c4ccc(N5CCOCC5)cn4)n[nH]c3C2(C)C)[C@@H](C)CN1C1CCOCC1 [Example F52]
54 | 0.0898 | CC1(C)c2[nH]nc(NC(=O)c3ccccn3)c2CN1C(=O)C1(F)CCN(C2CCOCC2)CC1 [Example B2, Pyridine-2-carboxylic acid {5-[4-fluoro-1-(tetrahydro-pyran-4-yl)-piperidine-4-carbonyl]-6,6-dimethyl-1,4,5,6-tetrahydro-pyrrolo[3,4-c]pyrazol-3-yl}-amide]
55 | 0.0176 | C[C@@H]1CN(C(=O)N2Cc3c(NC(=O)c4ccccn4)n[nH]c3C2(C)C)[C@@H](C)CN1CCC1CCOCC1 [Example A145, N-(5-((2R,5S)-2,5-dimethyl-1-(2(tetradehydro-2H-pyran-4-yl)methyl)piperazine-4-carbonyl)-6,6-dimethyl-1,4,5,6-tetrahydropyrrolo[3,4-c]pyrazol-3-yl)picolinamide]
56 | 0.0178 | C[C@H]1CN2CCC[C@H]2CN1C(=O)N1Cc2c(NC(=O)c3ccc4ccccc4n3)n[nH]c2C1(C)C [Example A88]
57 | 0.0249 | Cc1nc(C)c(C(=O)Nc2n[nH]c3c2CN(C(=O)N2C[C@@H](C)N(CCCO)C[C@@H]2C)C3(C)C)o1 [Example A160]
